From ChEMBL document CHEMBL1130780, “Synthesis of a cosalane analog with an extended polyanionic pharmacophore conferring enhanced potency as an anti-HIV agent” (Bioorg Med Chem Lett, 1998)

Legend:
[1] = The compound was tested for inhibitory against fusion of HL-2/3 cells towards HeLa-CD4-LTR-beta-gal cells.; type: functional, cell-based, Homo sapiens
[2] = test system: CEM-SS; experiment: Inhibitory activity against cytopathic effect of HIV-1RF in CEM-SS cells.; type: functional, cell-based; conditions: Homo sapiens
[3] = test system: CEM-SS; experiment: The compound was tested for inhibition of HIV-1 attachment to CEM-SS cells.; type: functional, cell-based; conditions: Homo sapiens
[4] = The compound was tested for inhibitory activity against gp120 binding to CD4 of peripheral blood lymphocytes (PBL); type: functional, Homo sapiens
[5] = test system: CEM-SS; experiment: Inhibitory activity against cytopathic effect of VIHU(NSI) clinical isolate in CEM-SS cells.; type: functional, cell-based; conditions: Homo sapiens
[6] = test system: CEM-SS; experiment: Inhibitory activity against cytopathic effect of HIV-IIIB strain in CEM-SS cells.; type: functional, cell-based; conditions: Homo sapiens

Structure (SMILES): CC(C)CCCC(C)[C@H]1CC[C@H]2[C@@H]3CCC4C[C@@H](CCC=C(c5cc(Cl)c(OCc6ccc(C(=O)O)cc6)c(C(=O)O)c5)c5cc(Cl)c(OCc6ccc(C(=O)O)cc6)c(C(=O)O)c5)CC[C@]4(C)[C@H]3CC[C@]12C (stereo partly specified)
- IC50 [1]: 2.7 µM
- EC50 [2]: 0.55 µM
- IC50 [3]: 72 µM

Structure (SMILES): CC(C)CCCC(C)[C@H]1CC[C@H]2[C@@H]3CCC4C[C@@H](CCC=C(c5cc(Cl)c(O)c(C(=O)O)c5)c5cc(Cl)c(O)c(C(=O)O)c5)CC[C@]4(C)[C@H]3CC[C@]12C (stereo partly specified)
- IC50 [4]: 7.8 µM
- EC50 [5]: 80.2 µM
- EC50 [6]: 3.4 µM
